According to paper PMC11790914, “Chemogenomics for steroid hormone receptors (NR3)” (Communications Chemistry, 2025):
Where “and” joins values, the source holds several entries; their conditions need not be identical. Identical values can stand only once.

Experiments:
[1] = system: HEK293T cells; experiment: Cytotoxicity: necrosis induction (red fluorescent dye for permeable plasma membranes); type: cell-based; details: 1 µM, 24 h, necrotic cell count normalized to 0.1% DMSO, single replicates;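 note: compounds applied in DMEM high glucose with 0.1% FCS and 0.1% DMSO, necrotic HEK293T cells counted by red staining of cells whose plasma membranes had become permeable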
[2] = system: Gal4-VP16; type: cell-based; details: 1 µM; vs. DMSO ctrl; single replicates n=1-3
Method: Five hours after transfection, the cells were incubated with the NR3 CG compound candidates at the recommended concentrations by changing the medium to Opti-MEM supplemented with penicillin (100 µ/mL) and streptomycin (100 µg/mL) additionally containing 0.1% DMSO and the respective test compound or 0.1% DMSO alone as untreated control. Firefly (reporter) and renilla (control) luminescence were measured after 14–16 h incubation using the Dual-Glo® Luciferase Assay System (Promega, Fitchburg, Wisconsin, USA; #E2980) according to manufacturer’s protocol on a Tecan Spark® 10M multimode microplate reader (Tecan Group AG, Männedorf, Switzerland). To obtain relative light units (RLU) firefly luminescence was divided by renilla luminescence and multiplied by 1000. Fold activation was obtained by dividing the mean RLU of a test sample by the mean RLU of the DMSO (0.1%) control. Experiments were performed in singlets in at least three biologically independent repeats.
are labeled according to their mode of action (yellow - agonist, grey - antagonist, grey with label D - degrader) and grouped by their
NR3 subfamily main targets.
reporter activity at the indicated concentrations expressed as mean fold reporter gene activity (n=3).

[3] = molecular target: T1, ABL1 (Homo sapiens, UniProt P00519); experiment: Liability panel screening by DSF: ABL1; type: binding; details: DSF, 20 µM, n=2; read-out: Mean ΔTM ABL1
T1 construct: made in house
T1 sequence (P00519 whole entry, species assumed): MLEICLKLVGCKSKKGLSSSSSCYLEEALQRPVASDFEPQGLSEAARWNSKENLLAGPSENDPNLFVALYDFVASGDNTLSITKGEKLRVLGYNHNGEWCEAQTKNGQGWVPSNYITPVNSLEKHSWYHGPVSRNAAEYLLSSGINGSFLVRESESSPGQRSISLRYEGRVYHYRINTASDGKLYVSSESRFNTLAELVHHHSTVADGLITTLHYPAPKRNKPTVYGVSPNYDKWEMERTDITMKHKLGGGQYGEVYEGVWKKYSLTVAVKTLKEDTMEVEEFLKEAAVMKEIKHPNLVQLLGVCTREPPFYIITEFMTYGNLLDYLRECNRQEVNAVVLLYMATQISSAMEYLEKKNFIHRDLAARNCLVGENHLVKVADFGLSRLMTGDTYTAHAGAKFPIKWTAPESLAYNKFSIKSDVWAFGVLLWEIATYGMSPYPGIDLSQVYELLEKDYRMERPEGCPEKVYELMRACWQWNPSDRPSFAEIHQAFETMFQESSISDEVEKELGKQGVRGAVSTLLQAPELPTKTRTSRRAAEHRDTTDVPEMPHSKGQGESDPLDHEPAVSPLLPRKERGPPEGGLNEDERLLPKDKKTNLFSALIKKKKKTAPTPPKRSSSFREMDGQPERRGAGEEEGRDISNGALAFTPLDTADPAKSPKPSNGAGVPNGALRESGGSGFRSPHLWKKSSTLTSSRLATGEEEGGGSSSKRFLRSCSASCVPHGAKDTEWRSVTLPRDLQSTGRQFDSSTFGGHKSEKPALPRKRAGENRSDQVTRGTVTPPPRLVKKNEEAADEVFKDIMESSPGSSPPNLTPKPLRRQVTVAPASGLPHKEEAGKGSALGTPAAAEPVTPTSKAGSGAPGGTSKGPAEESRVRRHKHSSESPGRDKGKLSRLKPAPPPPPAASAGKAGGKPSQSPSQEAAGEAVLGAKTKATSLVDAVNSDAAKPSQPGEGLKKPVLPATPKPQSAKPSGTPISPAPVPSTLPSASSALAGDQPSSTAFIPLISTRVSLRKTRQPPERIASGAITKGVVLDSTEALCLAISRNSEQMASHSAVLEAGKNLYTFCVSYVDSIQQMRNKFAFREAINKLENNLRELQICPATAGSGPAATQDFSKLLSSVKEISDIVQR
Summary of the method: (§1)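 Recombinant protein at 2 µM in 10 mM HEPES pH 7.5 with 500 mM NaCl was mixed with SYPRO Orange (1:1000) and heated at 3 °C/min up to 85 °C. Tm was taken as the Boltzmann-fit inflection point. Shifts are ∆Tm in K from technical duplicates.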

[4] = molecular target: T2, AURKA (Homo sapiens, UniProt O14965); experiment: Liability panel screening by DSF: AURKA; type: binding; details: DSF, 20 µM, n=2; read-out: Mean ΔTM AURKA
T2 construct: made in house
T2 sequence (O14965 1-403): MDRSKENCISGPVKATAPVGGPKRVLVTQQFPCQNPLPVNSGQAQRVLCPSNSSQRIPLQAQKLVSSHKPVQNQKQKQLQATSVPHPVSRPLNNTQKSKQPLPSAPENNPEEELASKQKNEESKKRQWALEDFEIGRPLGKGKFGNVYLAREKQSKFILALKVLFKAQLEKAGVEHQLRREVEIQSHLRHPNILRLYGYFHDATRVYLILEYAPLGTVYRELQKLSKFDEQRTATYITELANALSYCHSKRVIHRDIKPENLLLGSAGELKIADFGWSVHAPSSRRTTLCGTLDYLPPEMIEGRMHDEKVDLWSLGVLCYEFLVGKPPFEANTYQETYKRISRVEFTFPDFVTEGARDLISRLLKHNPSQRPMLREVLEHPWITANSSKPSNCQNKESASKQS
Summary of the method: as §1

[5] = molecular target: T3, CDK2 (Homo sapiens, UniProt P24941); experiment: Liability panel screening by DSF: CDK2; type: binding; details: DSF, 20 µM, n=2; read-out: Mean ΔTM CDK2
T3 construct: made in house
Summary of the method: as §1

[6] = molecular target: T4, FGFR3 (Homo sapiens, UniProt P22607); experiment: Liability panel screening by DSF: FGFR3; type: binding; details: DSF, 20 µM, n=2; read-out: Mean ΔTM FGFR3
T4 construct: made in house
T4 sequence (P22607 23-806, species assumed): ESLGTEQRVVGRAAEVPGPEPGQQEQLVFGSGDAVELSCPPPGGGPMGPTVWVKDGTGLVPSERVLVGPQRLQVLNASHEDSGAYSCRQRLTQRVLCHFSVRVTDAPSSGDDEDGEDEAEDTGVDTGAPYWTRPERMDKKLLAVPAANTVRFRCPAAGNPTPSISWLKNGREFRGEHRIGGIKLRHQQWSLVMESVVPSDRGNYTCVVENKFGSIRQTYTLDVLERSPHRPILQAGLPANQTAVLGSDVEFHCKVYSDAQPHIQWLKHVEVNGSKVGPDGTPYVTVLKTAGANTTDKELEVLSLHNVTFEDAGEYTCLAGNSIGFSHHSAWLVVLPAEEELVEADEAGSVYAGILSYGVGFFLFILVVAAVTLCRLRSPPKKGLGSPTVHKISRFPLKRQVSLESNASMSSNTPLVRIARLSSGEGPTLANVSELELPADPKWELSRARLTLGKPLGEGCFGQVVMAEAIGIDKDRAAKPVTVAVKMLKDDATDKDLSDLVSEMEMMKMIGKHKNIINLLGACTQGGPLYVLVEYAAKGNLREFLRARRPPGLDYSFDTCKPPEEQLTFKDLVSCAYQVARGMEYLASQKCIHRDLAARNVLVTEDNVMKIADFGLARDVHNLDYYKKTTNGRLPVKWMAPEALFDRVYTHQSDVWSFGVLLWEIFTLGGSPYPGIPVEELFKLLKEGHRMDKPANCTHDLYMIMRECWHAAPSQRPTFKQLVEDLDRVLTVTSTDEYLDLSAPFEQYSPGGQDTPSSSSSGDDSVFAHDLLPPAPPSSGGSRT
Summary of the method: as §1

[7] = molecular target: T5, GSK3B (Homo sapiens, UniProt P49841); experiment: Liability panel screening by DSF: GSK3B; type: binding; details: DSF, 20 µM, n=2; read-out: Mean ΔTM GSK3B
T5 construct: made in house
T5 sequence (P49841 whole entry, species assumed): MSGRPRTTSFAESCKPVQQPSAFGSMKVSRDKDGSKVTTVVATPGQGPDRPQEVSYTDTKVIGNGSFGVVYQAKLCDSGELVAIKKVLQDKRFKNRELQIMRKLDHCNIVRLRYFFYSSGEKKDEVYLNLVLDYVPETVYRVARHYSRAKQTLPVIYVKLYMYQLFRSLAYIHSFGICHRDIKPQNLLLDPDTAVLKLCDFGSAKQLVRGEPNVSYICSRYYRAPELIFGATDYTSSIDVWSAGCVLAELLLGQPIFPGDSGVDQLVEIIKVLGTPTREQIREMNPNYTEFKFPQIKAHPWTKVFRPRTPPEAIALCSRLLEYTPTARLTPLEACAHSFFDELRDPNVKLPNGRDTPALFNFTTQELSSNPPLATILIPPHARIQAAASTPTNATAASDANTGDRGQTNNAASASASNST

[8] = molecular target: T6, BRD4 (Homo sapiens, UniProt O60885); experiment: Liability panel screening by DSF: BRD4; type: binding; details: DSF, 20 µM, n=2; read-out: Mean ΔTM BRD4
T6 construct: This panel comprised ten highly ligandable kinases and bromodomains; made in house
Summary of the method: as §1

[9] = molecular target: T7, BRPF1 (Homo sapiens, UniProt P55201); experiment: Liability panel screening by DSF: BRPF1; type: binding; details: DSF, 20 µM, n=2; read-out: Mean ΔTM BRPF1
T7 construct: This panel comprised ten highly ligandable kinases and bromodomains; made in house
T7 sequence (P55201 628-732 limits assumed): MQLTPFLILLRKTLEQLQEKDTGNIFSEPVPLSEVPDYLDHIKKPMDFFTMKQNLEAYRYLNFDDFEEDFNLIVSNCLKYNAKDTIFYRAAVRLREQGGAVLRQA
Summary of the method: as §1

[10] = molecular target: T8, CSNK1D (Homo sapiens, UniProt P48730); experiment: Liability panel screening by DSF: CSNK1D; type: binding; details: DSF, 20 µM, n=2; read-out: Mean ΔTM CSNK1D
T8 construct: made in house
T8 sequence (P48730 whole entry, species assumed): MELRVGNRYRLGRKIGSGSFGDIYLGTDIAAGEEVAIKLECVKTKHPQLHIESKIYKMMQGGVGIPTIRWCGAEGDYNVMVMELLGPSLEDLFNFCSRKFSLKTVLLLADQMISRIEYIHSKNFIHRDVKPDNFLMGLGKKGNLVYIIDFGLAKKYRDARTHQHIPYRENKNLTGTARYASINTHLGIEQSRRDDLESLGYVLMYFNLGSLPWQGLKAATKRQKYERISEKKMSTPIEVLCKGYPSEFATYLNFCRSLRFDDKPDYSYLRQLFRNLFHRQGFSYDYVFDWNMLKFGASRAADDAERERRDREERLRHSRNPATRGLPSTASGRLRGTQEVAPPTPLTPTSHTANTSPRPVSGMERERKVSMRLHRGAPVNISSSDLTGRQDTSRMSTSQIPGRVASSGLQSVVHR
Summary of the method: as §1

[11] = molecular target: T9, MAPK1 (Homo sapiens, UniProt P28482); experiment: Liability panel screening by DSF: MAPK1; type: binding; details: DSF, 20 µM, n=2; read-out: Mean ΔTM MAPK1
T9 construct: made in house
T9 sequence (P28482 whole entry, species assumed): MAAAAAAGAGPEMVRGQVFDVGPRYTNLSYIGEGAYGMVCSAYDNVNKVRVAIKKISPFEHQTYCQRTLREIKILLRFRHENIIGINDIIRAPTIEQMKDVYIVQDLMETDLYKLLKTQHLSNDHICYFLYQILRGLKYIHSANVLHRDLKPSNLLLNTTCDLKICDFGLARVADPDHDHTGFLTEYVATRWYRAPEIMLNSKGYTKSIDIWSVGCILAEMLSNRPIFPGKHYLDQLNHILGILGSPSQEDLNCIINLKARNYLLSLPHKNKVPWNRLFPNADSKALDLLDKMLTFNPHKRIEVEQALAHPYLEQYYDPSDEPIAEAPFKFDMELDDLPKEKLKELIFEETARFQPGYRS
Summary of the method: as §1

[12] = molecular target: T10, TRIM24 (Homo sapiens, UniProt O15164); experiment: Liability panel screening by DSF: TRIM24; type: binding; details: DSF, 20 µM, n=2; read-out: Mean ΔTM TRIM24
T10 construct: This panel comprised ten highly ligandable kinases and bromodomains; made in house
T10 sequence (O15164 899-1004 limits assumed): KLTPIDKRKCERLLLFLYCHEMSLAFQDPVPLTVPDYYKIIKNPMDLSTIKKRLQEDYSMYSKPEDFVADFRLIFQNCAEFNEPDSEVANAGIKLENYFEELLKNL
Summary of the method: as §1

[13] = system: NF-κB activity in HEK293 NF-κB reporter cells; experiment: NF-kB activity assay (GFP reporter, ionomycin/PMA); type: cell-based; details: for Mean NFκB response: n=3
Summary of the method: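 Reporter readout: GFP-expressing cells normalized to confluence, imaged every 90 min across 24 h after ionomycin (100 ng/mL)/PMA (10 ng/mL) stimulation of HEK293 cells pre-treated 4 h with compound (0.1% DMSO); triplicate independent experiments.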

[14] = system: ATF6 activity in Hela ATF6 reporter cells; experiment: Endoplasmic reticulum stress assay (ATF6 Renilla luciferase reporter, tunicamycin); type: cell-based; details: for activity at 1 µM: Homo sapiens, HeLa, single replicates n=1 to n=5, read-out: ER stress [rel. ATF6 activity]
Summary of the method: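 ER stress was induced by 100 ng/mL tunicamycin added 4 h after compound (0.1% DMSO) to HeLa ATF6 reporter cells. After 18 h more, Renilla luciferase signal was read and expressed relative to DMSO control, n=5 biological replicates.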

[15] = system: NR3C1 (GR); details: (lit.); ref Supplementary Table 1; read-out: Potency [nM] EC50, NR3C1 (GR); cited from earlier work
[16] = system: HEK293T cells; experiment: Cytotoxicity: metabolic activity (WST-8 / CCK-8 assay); details: 1 µM, single replicates
[17] = system: HEK293T cells; experiment: Cytotoxicity: growth-rate (change in confluence over 24 h); details: 1 µM, normalized to 0.1% DMSO control, single replicates (n=1...)
[18] = system: HEK293T cells; experiment: Cytotoxicity: apoptosis induction (caspase-3/7 DEVD fluorogenic DNA dye); details: 1 µM, single replicates
[19] = other targets with annotated bioactivities at ≤10 µM in previously published dataset; cited from earlier work
[20] = HEK293T, 24 h, WST-8, normalized to 0.1% DMSO
[21] = HEK293T, 24 h, apoptotic cell count normalized to 0.1% DMSO

SMILES	Necrosis induction [NI] [1]	VP16 control [fold reporter gene activity] [2]	ΔTm at 20 µM [3] [°C]	ΔTm at 20 µM [4] [°C]	ΔTm at 20 µM [5] [°C]	ΔTm at 20 µM [6] [°C]	ΔTm at 20 µM [7] [°C]	ΔTm at 20 µM [8] [°C]	ΔTm at 20 µM [9] [°C]	ΔTm at 20 µM [10] [°C]	ΔTm at 20 µM [11] [°C]	ΔTm at 20 µM [12] [°C]	Mean NFκB response ([13]; 1 µM, 1,5 h)	Mean NFκB response ([13]; 1 µM, 4,5 h)	Mean NFκB response ([13]; 1 µM, 7,5 h)	Mean NFκB response ([13]; 1 µM, 10,5 h)	Mean NFκB response ([13]; 1 µM, 13,5 h)	Mean NFκB response ([13]; 1 µM, 16,6 h)	Mean NFκB response ([13]; 1 µM, 19,5 h)	Growth rate [GR] [17]	other results
C[C@H]1C[C@H]2[C@@H]3CCC4=CC(=O)C=C[C@]4(C)[C@@]3(Cl)[C@@H](O)C[C@]2(C)[C@@]1(O)C(=O)CO [Beclomethasone]	0.78 and 0.71 and 0.63 and 0.85	1.09 fold reporter gene activity and 0.87 fold reporter gene activity and 0.97 fold reporter gene activity	-0.27	0.03	-0.29	-0.31	-0.75	-0.57	-0.66	-0.04	0.36	-1.53	2314.11 GFP+-cells/confluence ∙ 1000	2712.93 GFP+-cells/confluence ∙ 1000	3902.54 GFP+-cells/confluence ∙ 1000	7904.68 GFP+-cells/confluence ∙ 1000	11292.34 GFP+-cells/confluence ∙ 1000	14142.72 GFP+-cells/confluence ∙ 1000	16024.63 GFP+-cells/confluence ∙ 1000	0.71 and 0.34 and 0.95 and 1.09 and 0.91 and 1.08 and 0.81 and 0.17 and 2.51 and -0.30	Mean NFκB response ([13]; 1 µM, 22,5 h): 18119.25 GFP+-cells/confluence ∙ 1000; Mean NFκB response ([13]; 1 µM, 3 h): 2367.97 GFP+-cells/confluence ∙ 1000; Mean NFκB response ([13]; 1 µM, 6 h): 3065.61 GFP+-cells/confluence ∙ 1000; Mean NFκB response ([13]; 1 µM, 9 h): 5609.44 GFP+-cells/confluence ∙ 1000; Mean NFκB response ([13]; 1 µM, 12 h): 9507.58 GFP+-cells/confluence ∙ 1000; Mean NFκB response ([13]; 1 µM, 15 h): 12732.70 GFP+-cells/confluence ∙ 1000; Mean NFκB response ([13]; 1 µM, 18 h): 14975.90 GFP+-cells/confluence ∙ 1000; Mean NFκB response ([13]; 1 µM, 21 h): 16981.30 GFP+-cells/confluence ∙ 1000; Mean NFκB response ([13]; 1 µM, 24 h): 19467.95 GFP+-cells/confluence ∙ 1000; NF-κB activity (inflammatory response to ionomycin/PMA) ([13]; HEK293 NF-κB reporter cells, compounds at recommended concentrations, imaged over 24 h, n = 3): consistently delayed and strongly diminished NF-κB activity; ATF6 activity (tunicamycin-induced endoplasmic reticulum stress) ([14]; Hela ATF6 reporter cells, tunicamycin 100 ng/mL, 18 h, compounds at recommended concentrations, n = 5): Consistently weaker ATF6 activity; activity at 1 µM [14]: 72%; EC50 [15]: 8 nM; Metabolic activity [MA] [16, 20]: 1.06 and 1.03 (2×) and 0.92 and 0.98 (2×) and 1.01 and 1.10; Apoptosis induction [AI] [18, 21]: 0.38 and 0.63 and 0.67 and 0.78 and 0.69 and 1.03
COC(=O)[C@@H]1CC2=CC(=O)CC[C@]2(C)[C@@]23O[C@@H]2C[C@@]2(C)[C@@H](CC[C@@]24CCC(=O)O4)[C@H]13 [Eplerenone]	1.05 and 1.24 and 1.00 and 0.99	1.24 fold reporter gene activity and 0.82 fold reporter gene activity and 1.00 fold reporter gene activity	0.55	-0.81	-0.21	1.06	-0.8	-1.74	-1.07	0.47	0.21	-0.62	2599.33 GFP+-cells/confluence ∙ 1000	2970.00 GFP+-cells/confluence ∙ 1000	5786.00 GFP+-cells/confluence ∙ 1000	15820.00 GFP+-cells/confluence ∙ 1000	23870.00 GFP+-cells/confluence ∙ 1000	30236.67 GFP+-cells/confluence ∙ 1000	34356.67 GFP+-cells/confluence ∙ 1000	0.85 and 4.28 and 0.92 and 1.11 and 0.73 and 0.84 and 0.96 and 4.53 and 0.57 and 31.96	Mean NFκB response ([13]; 1 µM, 22,5 h): 38213.33 GFP+-cells/confluence ∙ 1000; Mean NFκB response ([13]; 1 µM, 3 h): 2606.00 GFP+-cells/confluence ∙ 1000; Mean NFκB response ([13]; 1 µM, 6 h): 3625.00 GFP+-cells/confluence ∙ 1000; Mean NFκB response ([13]; 1 µM, 9 h): 10753.00 GFP+-cells/confluence ∙ 1000; Mean NFκB response ([13]; 1 µM, 12 h): 20210.00 GFP+-cells/confluence ∙ 1000; Mean NFκB response ([13]; 1 µM, 15 h): 27316.67 GFP+-cells/confluence ∙ 1000; Mean NFκB response ([13]; 1 µM, 18 h): 32426.67 GFP+-cells/confluence ∙ 1000; Mean NFκB response ([13]; 1 µM, 21 h): 36556.67 GFP+-cells/confluence ∙ 1000; Mean NFκB response ([13]; 1 µM, 24 h): 39176.67 GFP+-cells/confluence ∙ 1000; activity at 1 µM [14]: 96%; Metabolic activity [MA] [16, 20]: 1.06 and 1.03 and 0.91 and 0.99 (3×) and 0.98 and 1.09; Apoptosis induction [AI] [18, 21]: 0.96 and 0.85 and 1.29 and 1.36 and 1.16 and 1.24
CCC(=O)O[C@]1(C(=O)SCF)[C@H](C)C[C@H]2[C@@H]3C[C@H](F)C4=CC(=O)C=C[C@]4(C)[C@@]3(F)[C@@H](O)C[C@@]21C [Fluticasone propionate]	–	–	0.19	0.09	0.15	0.32	-0.55	-0.24	-0.69	-0.0152	-0.034	-0.08	–	–	–	–	–	–	–	0.78 and 1.00 and 1.07 and 0.88 (2×) and 0.82	EC50 [15]: 1 nM; Reason for exclusion: number of annotated off-targets [19]: > 5 off-targets; Metabolic activity [MA] ([16]; DMSO 0.1% = 1.00): 0.94 and 0.83 and 1.03 and 1.06 and 1.10 and 1.04; Apoptosis induction [AI] ([18]; DMSO 0.1% = 1.00): 0.81 and 1.24
